System: panel of different kinases
Experiment: Selectivity across kinase panel (Gini coefficient)
Assay type: biochemical, human
Settings: for GINI Coefficient: value between 0 and 1, higher = more selective
Text: Table compares the activity of Example 23 with cyclobutanecarboxylic acid {3-[5-bromo-2-(3-fluoro-phenylamino)-pyrimidin-4-ylamino]-propyl}-amide (Compound A)^13, against a panel of different kinases, where the residual kinase activity, in %, at two concentrations of the compounds is expressed. The higher the percentage residual activity, the lower the degree of inhibition of the kinase.

## O=C(NCCCNc1nc(Nc2cccc(F)c2)ncc1Br)C1CCC1 [Compound A, cyclobutanecarboxylic acid {3-[5-bromo-2-(3-fluoro-phenylamino)-pyrimidin-4-ylamino]-propyl}-amide, reference compound]
@ 10 μM
  GINI Coefficient: 0.19
In words
  GINI Coefficient: significantly lower value than Example 23

## O=C(NCCCNc1nc(Nc2cccc(F)c2)ncc1C1CC1)C1CCC1 [Example 23, Cyclobutanecarboxylic acid {3-[5-cyclopropyl-2-(3-fluoro-phenylamino)-pyrimidin-4-ylamino]-propyl}-amide]
@ 10 μM
  GINI Coefficient: 0.35
In words
  selectivity across kinase panel: significant improvement of selectivity across this kinase panel

— patent publication US20100056524A1, “Compound” (priority 2008, published 2010)
